Measurements reported in paper PMC5438364, “A broad-spectrum bactericidal lipopeptide with anti-biofilm properties” (Scientific Reports, 2017).
Read-outs that look alike come from different tables or passages of the source. Where a SMILES comes first, the peptide text is derived from it. [ ]: non-standard residue; d: D form. The star is where a group is joined. Palmitoyl = CCCCCCCCCCCCCCCC(=O)*; Lauroyl = CCCCCCCCCCCC(=O)*; 12Ado = NCCCCCCCCCCCC(=O)O; Decanoyl = CCCCCCCCCC(=O)*; Octanoyl = CCCCCCCC(=O)*

Columns and labels:
[1] = tested on: E. coli; details: microdilution; cited from earlier work
Source text: Table 2 Modulating biophysical properties of a core sequence by conjugating an N-terminal acyl. | column: MIC^c (µM) / E.c.

[2] = Hydrophobicity by C18 RP-HPLC elution; assay type: physicochemical; details: chromatographic, RP-HPLC C18 (Vydac), flow 2 ml/min, linear acetonitrile gradient 1%/min
Description: OAKs were synthesized in-house (433 A Peptide Synthesizer; Applied Biosystems, Foster City, CA, USA) by the solid-phase method using 9-fluorenylmethyloxycarbonyl (Fmoc) active-ester chemistry on 4-methylbenzhydrylamine (MBHA) resin. OAKs were then deprotected and cleaved from the resin using trifluoroacetic acid:H2O (95:5) and purified to >95% chromatographic homogeneity by reverse phase high performance liquid chromatography (RP-HPLC) using C18 column (Vydac), a flow rate of 2 ml/min and a linear acetonitrile gradient of 1%/min (Alliance; Waters, Milford, MA, USA). Peaks identity was verified by mass-spectrometry (Xevo G2 Tof; Waters, Milford, MA, USA). Purified OAKs were then lyophilized and kept as dry powder at −20 °C.

[3] = tested on: S. mutans; experiment: microbe, parasite or virus in culture; assay type: cell-based, Streptococcus mutans
Description: Staphylococci, Bacilli, Escherichia, Pseudomonas, Acinetobacter, Salmonella and Klebsiella species were grown in Luria Bertani broth (LB; 5 gr/l NaCl, 5 gr/l yeast extract, 10 gr/l tryptone). Enterococci and E. coli ML-35p were grown in Tryptic Soy Broth (TSB). Listeria and Streptococci were grown in Brain Heart Infusion (BHI). All bacteria were grown over-night at 37 °C with shaking. S. mutans 35668 plated on BHI agar for enumeration was grown for 48 hr. S. mutans UA159 was grown in 5% CO2 enriched atmosphere. Fusobacterium and Porphyromonas were grown in Wilkins-Chalgren growth medium and an anaerobic atmosphere.
Minimal inhibitory concentration (MIC) was determined using the microdilution assay. Mid-log-phase bacteria at 5 × 10^5 CFU/ml were incubated in a 96-well plate with serial two-fold dilutions of the tested compound for 18–24 hr at 37 °C (final volume of 200 µl). O.D. at 620 nm was measured (Synergy HT, BioTek Instruments, Winooski, VT, USA), and the MIC was determined as the lowest concentration for which no increase in O.D. was detected.

[4] = tested on: GPB and GNB; experiment: Effect observed at low concentrations, analog series; assay type: cell-based; details: summary of this and previous studies
Description: Table 2 Modulating biophysical properties of a core sequence by conjugating an N-terminal acyl. | column: Effect observed at low concentrations (<3 µM)

[5] = tested on: bacteria; details: cited from earlier work
Source text: A variety of strategies were proposed to generate chemical mimics of AMPs to alleviate complications associated with peptide drugs, [31]. AMP-mimics may also be beneficial in helping to improve understanding the complex molecular basis for AMPs function(s) owing to their relative molecular/structural simplicity. Namely, while charge and hydrophobicity represent most critical factors influencing AMP properties, it is often challenging to identify the respective optimal proportions for controlling potency or selectivity. For instance, excess hydrophobicity might promote self-assembly in aque ...

[6] = under similar conditions; increased with increasing hydrophobicity; cited from earlier work
[7] = tested on: S. mutans ATCC 35668 biofilm; experiment: Anti-biofilm activity on pre-formed biofilm; assay type: cell-based, Streptococcus mutans; details: ≥0.5 mM, within one hour of exposure, inoculum 10^9 CFU/ml
Description: Anti-biofilm activity was evaluated against established biofilms in 96-well plates as follows. 200 µl of mid-log-phase S. mutans 35668 at 5 × 10^5 CFU/ml in BHI containing 2% sucrose were placed in each well, and plates were incubated for 24 hr at 37 °C without shaking. Unattached cells were removed by decanting the plates and biofilms were washed three times with milliQ water. Solutions of the tested compounds were placed on the biofilms for up to 3 hr at 37 °C without shaking. Plates were decanted in 0.5 hr intervals and biofilms were washed three times with milliQ water to remove any compound residues. Biofilms were scraped from the bottom of the wells, suspended in BHI and sonicated for 5 min in a sonication bath, subjected to serial 10-fold dilutions in saline and plated on BHI agar for enumeration.

[8] = tested on: S. mutans ATCC 35668; experiment: Bactericidal kinetics (time-kill); assay type: cell-based, Streptococcus mutans; details: time-kill kinetics in BHI
Description: Bactericidal kinetics was assessed by incubating 5 × 10^5 CFU/ml of mid-log-phase bacteria with the OAK for 3 hr at 37 °C with shaking. Aliquots were taken at t = 0, 0.5, 1, 2 and 3 hr, subjected to serial 10-fold dilutions in saline (NaCl = 0.85%) and plated for enumeration after 24–48 hr incubation at 37 °C.

NCCCC[C@H](NC(=O)CCCCCCCCCCCNC(=O)[C@H](CCCCN)NC(=O)[C@@H](N)CCCCN)C(N)=O [H-KKc12K-NH2] (H-KK[12Ado]K-NH2)
MIC E.c. [1]: >50[40] µM
H, hydrophobicity, defined as % acetonitrile eluent in C18 HPLC column [2]: 27%
MIC [3]: >50 µM
Effect observed at low concentrations (<3 µM) [4]: Not observed (normal growth)
antibacterial activity [5]: inactive

CCCCCCCCCCCC(=O)N[C@@H](CCCCN)C(=O)N[C@@H](CCCCN)C(=O)NCCCCCCCCCCCC(=O)N[C@@H](CCCCN)C(N)=O [C12KKc12K] (Lauroyl-KK[12Ado]K-NH2)
MIC E.c. [1]: 16[40] µM
binding affinity to LPS [6]: lower than that of C14KKc12K
H, hydrophobicity, defined as % acetonitrile eluent in C18 HPLC column [2]: 51%
MIC [3]: 1.56 µM
Effect observed at low concentrations (<3 µM) [4]: Impairing membrane damages leading to a bacteriostatic mode of action in GPB; OM permeabilization & delayed growth in GNB

CCCCCCCCCC(=O)N[C@@H](CCCCN)C(=O)N[C@@H](CCCCN)C(=O)NCCCCCCCCCCCC(=O)N[C@@H](CCCCN)C(N)=O [C10KKc12K] (Decanoyl-KK[12Ado]K-NH2)
MIC E.c. [1]: >50[40] µM
binding affinity to LPS [6]: lower than that of C14KKc12K
H, hydrophobicity, defined as % acetonitrile eluent in C18 HPLC column [2]: 46%
MIC [3]: 6.25 µM
Effect observed at low concentrations (<3 µM) [4]: Weak growth inhibition of some GPB and transient membrane damages including partial depolarization of CM (slight delay in GNB growth)
antibacterial activity [5]: essentially inactive

CCCCCCCC(=O)N[C@@H](CCCCN)C(=O)N[C@@H](CCCCN)C(=O)NCCCCCCCCCCCC(=O)N[C@@H](CCCCN)C(N)=O [C8KKc12K] (Octanoyl-KK[12Ado]K-NH2)
MIC E.c. [1]: >50[40] µM
binding affinity to LPS [6]: lower than that of C14KKc12K
H, hydrophobicity, defined as % acetonitrile eluent in C18 HPLC column [2]: 41%
MIC [3]: 50 µM
Effect observed at low concentrations (<3 µM) [4]: Weak perturbations of GNB outer membrane (normal growth)
antibacterial activity [5]: essentially inactive

CCCCCCCCCCCCCCCC(=O)N[C@@H](CCCCN)C(=O)N[C@@H](CCCCN)C(=O)NCCCCCCCCCCCC(=O)N[C@@H](CCCCN)C(N)=O [C16KKc12K] (Palmitoyl-KK[12Ado]K-NH2)
MIC E.c. [1]: 25[24] µM
H, hydrophobicity, defined as % acetonitrile eluent in C18 HPLC column [2]: 62%
MIC [3]: 1.56 µM
Effect observed at low concentrations (<3 µM) [4]: Trend reversal (reduced potency) due to excess hydrophobicity as self-assembly approaches the critical aggregation concentration

[H]/N=C(\N/C(=N/[H])NCCCCCCNC(=N)NC(=N)Nc1ccc(Cl)cc1)Nc1ccc(Cl)cc1 [CHX, chlorhexidine, reference compound]
killing of the initial inoculum in preformed biofilm [7]: > 99%
higher potency (MIC) than C14KKc12K ([3]; MIC of CHX versus C14KKc12K on S. mutans): ~3 fold
MIC ([3]; Streptococcus mutans, microdilution, BHI, 18–24 hr, 37 °C): 0.3 µM
multiples of MIC at which bactericidal [8]: 40 multiples of its MIC
